Patent publication US8361802B2, “Fluorescent ozone sensor” (University of Pittsburgh—Of the Commonwealth System of …, priority 2009, dated 2013)

Legend:
[1] = Ozone detection in indoor air on adsorbent paper strips
Experimental: One embodiment of the present invention can be a badge that contains compound 4 that may be worn by patients so their total ozone exposure can be continuously measured through the day. A proof-of-principle experiment was conducted with compound 4 and compound 1 as a comparative. A solution of compound 4 (500 nmol) in dimethylsulfoxide (DMSO) was absorbed on a piece of adsorbent paper and allowed to dry. The paper strips were stored in an office room that had two photocopiers and two laser printers. After eight hours, the paper strips were removed and placed in a vial that contained oH 7 buffer to elute the dyes. […] The deviation in these values is presumably because of photobleaching and the lack of specificity of compound 1 towards various ROS, including singlet oxygen.
Ozone detection in indoor air. FIG. 10 are photographic illustrations of results of Ozone detection tests in indoor air using the present invention. The top photograph is a Kimwipe® before placing into photocopy room for 8 hours. The bottom photographs are a Kimwipe® in buffer for absorbance and fluorescence measurement, wherein the left photograph is an indigo carmine taken in room light), and the right photograph is compound 4 taken under long-range UV lamp. One adsorbent paper (Kimwipe®) was cut into two 11×9 cm pieces. Solution A (50 μL, 500 nmol of compound 4) was added to one portion of the Kimwipe® and allowed to dry (FIG. 10, top right). Solution B (50 μL, 500 nmol of indigo carmine) was added to the other portion of the Kimwipe® and allowed to dry (FIG. 10, top left). After overnight drying in a laboratory drawer, the paper strips were moved to a poorly ventilated photocopy room (2 photocopiers and 2 laser printers) for 8 hours. The controls remained in the laboratory drawer. After 8 hours, the samples were placed into a scintillation vial, and the dyes were eluted with pH 7 buffer (6.0 mL) (˜5 min) before fluorescence and absorbance measurement. […] FIGS. 3C-D error bars were determined from the calculated mean and standard deviation (Prism 5.0a, GraphPad Software, Inc.).

[2] = Indigo carmine with various ROS; conditions: 12.5 μM indigo carmine
Experimental: Indigo carmine with various ROS. The ROS experiments described above were repeated using indigo carmine (Solution B, [Indigo Carmine]final=12.5 μM in all cases) in triplicate. […] FIG. 6A is the Absorbance spectrum of indigo carmine. FIG. 6B is the ROS with indigo carmine. Error bars were determined from the calculated mean and standard deviation (Prism 5.0a, GraphPad Software, Inc.).

[3] = test system: Human bronchial epithelial cells (BEAS-2B); experiment: Live-cell imaging of human bronchial epithelial cells; assay type: cell-based
Experimental: Human bronchial epithelial cells (BEAS-2B) (American Type Culture Collectin) were grown in LHC-9 medium (Invitrogen) on glass-bottomed Petri dishes (MatTek) precoated with 0.01 mg ml^−1 of human fibronectin (Invitrogen), 0.029 mg ml^−1 Vitrogen 100 (Cohesion) and 0.01 mg ml^−1 bovine serum albumin (Invitrogen) in LHC-9 medium. Immediately prior to imaging, cells were rinsed with Hank's balanced salt solution, which contained calcium and magnesium, and placed inside a temperature-controlled, airtight environmental chamber and maintained at 37° C. and 5% CO2. Images were obtained using a Nikon TE2000E-PFS (Perfect focus system) microscope equipped with a […] oil-immersion objective (Nikon, CFI PlanFluor, NA 1.3) and a fluorescien isothiocyanate longpass filter set (Chroma), a Q-Imaging SRV CCD camera (Q-imaging) and MetaMorph software (Molecular Devices). The motorized XYZ stage used was made by ASA (Eugege). Baseline images were collected before the addition of compound 8 and time-lapsed images obtained at 30 second intervals after the addition of compound 8 (250 nM). Once stage baseline had been achieved, multiple washes were carried out and the media replaced. The cells were then exposed to ozone (˜2.1 ppm) and monitored every 30 seconds for 15 minutes. Ozone was generated from medical grade oxygen (Valley Gas) via a model V1-0 ultraviolet ozonator (OREC) and analyzed with a Dasibi (Glendale) direct-reading instrument. Ozone concentrations were maintained by adjusting both the intensity of the ultraviolet light and the flow rate of oxygen. For each experiment, images were collected from six stages, with a minimum of five cells per position (a minimum of 30 cells per […]).
In another embodiment of the invention, human bronchial epitelial cells were incubated with compound 4 to determine ozone's role in cell biology. […] Based on studies why compound 4 and structurally related compounds are not fluorescent, it is believed that the hydroxymethyl group 4 may have been oxidized to give a more electron-withdrawing group, possible a carboxyl or aldehyde group, and so emit a strong fluorescence signal. To circumvent such an oxidation event, compound 8 was prepared specific for ozone. […] Once a steady baseline signal had been established and maintained for five minutes, ozone gas was generated within the airtight environmental chamber that housed the cell-culture dishes, and fluorescent signals were monitored using live-cell microscopy for approximately 15 minutes.
FIGS. 16A-H are photographs of live-cell imaging of human bronchial epithelial cells in the presence of ozone using compound 8. The left-hand panels (FIGS. A-E) are pseudocolour images that indicate the changes in emission intensity over time, and the right-hand panels show differential interference contrast images of the bronchial epithelial cells. FIG. 16A is before the addition of compound 8 (0 seconds). FIG. 16B illustrates the cell at 107 seconds that is a steady state intensity reached with compound 8 at 250 nM. FIG. 16C illustrates the cell at 326 seconds when ozone flow is started. FIG. 16D illustrates the cell at 536 seconds with the emission intensity increasing. FIG. 16E illustrates the cell at 675 seconds when emission maximum is reached. FIG. 16F illustrates the cell at 820 seconds when the cell starts to die. FIG. 16G illustrates the cell at 969 seconds where the cell emission continues to fall. FIG. 16H illustrates the cell at 1148 seconds when the ozone flow is stopped.

[4] = Fluorescence spectroscopy of the compounds; assay type: physicochemical
Experimental: Fluorescence spectroscopy. Fluorescence spectra were recorded in a 1×1-cm disposable cuvette (VWR; catalog number 58017-880) on a Jobin Yvon FluoroMax-3 spectrometer under the control of a Windows-based PC running FluorEssence software. The samples were excited at 497 nm and the emission intensities were collected at 523 nm. All spectra were corrected for emission intensity using the manufacturer supplied photomultiplier curves.
FIGS. 4A-H illustrate absorbance and fluorescence emission of compounds 4, 7, 8, and S1, wherein fluorescence and emission spectra were measured in 0.1% DMSO in pH 7 buffer. FIG. 4A is absorbance spectrum of compound 4. FIG. 4B is Emission spectrum of compound 4. FIG. 4C is Absorbance spectrum of compound 7. FIG. 4D is Emission spectrum of compound 7. FIG. 4E is Absorbance spectrum of compound 8. FIG. 4F is Emission spectrum of compound 8. FIG. 4G is Absorbance spectrum of compound S1. FIG. 4H is Emission spectrum of compound S1.

[5] = Cytotoxicity against HeLa cells (MTS assay); assay type: cell-based; conditions: human, 2000 cells/well, 10 nM to 200 μM, read-out: 1050 (cytotoxicity)
Experimental: FIG. 4J is the cytotoxicity of compound 8 against HeLa cells seeds at a density of 2000 cells/well is a 96-well plate;
FIG. 4I is the ROS with compound 8. The experiment was performed in duplicate. Error bars were determined from the calculated mean and standard deviation (Prism 5.0a, GraphPad Software, Inc.). FIG. 4J is the cytotoxicity of compound 8 against HeLa cells seeds at a density of 2000 cells/well is a 96-well plate. Concentrations of compound 8 ranged from 10 nM to 200 μM. The assay was performed for 3 days, and the relative cell density was determined by an MTS assay (Promega CellTiter 96® AQueous Non-Radioactive Cell Proliferation Assay).

fluorescence of the probe itself [4]	Structure (SMILES)	decrease in absorbance at 610 nm ([1]; 500 nmol on adsorbent paper, photocopy room, eight hours)	consumption of compound 1 ([1]; correlated from decrease in absorbance at 610 nm)	decrease in absorbance at 610 nm with nearly all ROS [2]	fluorescent emissions inside the cells after ozone generation ([3]; 250 nM, ozone ~2.1 ppm, about 15 minutes)	time at which emission maximum is reached ([3]; 250 nM, ozone flow started at 326 seconds)	fluorescence inside the cells in the absence of external ozone ([3]; human bronchial epithelial cells, no external ozone)	IC50 at 3 days [5]
–	O=C1/C(=C2\Nc3ccc(S(=O)(=O)[O-])cc3C2=O)Nc2ccc(S(=O)(=O)[O-])cc21.[Na+].[Na+] [compound 1, indigo carmine]	77%	387 nmol	11-70%	–	–	–	–
nearly non-fluorescent	C=CCCOc1cc2oc3cc(=O)c(Cl)cc-3c(-c3ccccc3C)c2cc1Cl [compound 8]	–	–	–	time-dependent increase in fluorescent emissions occurred inside the cells	675 s	remained weakly fluorescent within the cells	43 µM
